Assay results as given in patent US12409209B2, “Biological function regulating agent, epidermal metabolism promoting agent, fat accumulation inhibiting agent, fat decomposition promoting agent, adiponectin production promoting agent, functional food, cosmetic product, and method for producing biological function regulating agent” (NITTA GELATIN INC., priority 2020, dated 2025).

Legend:
[1] = tested on: fat cells differentiated from mouse-derived precursor fat cells (3T3-L1); assay: Eleventh test: fat accumulation in fat cells (Oil Red O); format: cell-based; conditions: positive control, final conc. 2 ug/mL; 3T3-L1 7 passages, 13 PDL
Protocol: The mouse-derived precursor fat cells (manufactured by Research Resources Bank, Resource No. JCRB 9014, Lot No. 01282009) were precultured in a culture medium (DMEM/F12 medium (passage culture, catalog No: “11330-032”, manufactured by Gibco Company, containing 10 mass % FBS, penicillin and streptomycin). Subsequently, from the medium and the cells subjected to the preculture, a cell suspension liquid containing the cells at 3×10^4 cells/mL was prepared. Further, 5 mL of the cell suspension liquid was seeded in each of 60 mm dishes (catalog No: Corning, Cat. No. 430166) (1.5×10^5 cells/dish), and cultured for 2 days under the condition of 37° C. (5 vol % CO2). […] 200 μL of the extraction liquid was transferred to a 96-well plate, and the absorbance at OD 520 nm was measured with an absorption spectrometer (trade name: “Synergy HTX” manufactured by Biotech Japan Corporation). It is evaluated that the higher the value of the absorbance at OD 520 nm, the more likely the fat accumulation is to occur in fat cells. […] The fat accumulation ratio in fat cells containing each sample, the berberine chloride solution or RO water was determined in accordance with the following calculation expression. Fat accumulation ratio (%)=[(measured value at OD 520 nm for each sample)/(measured value at OD 520 nm for blank)×100] […]

[2] = tested on: fat cells differentiated from mouse-derived precursor fat cells (3T3-L1); assay: Third test: fat accumulation in fat cells (Oil Red O, OD 520 nm); format: cell-based; conditions: positive control, final conc. 2 μg/mL; 3T3-L1 5 passages, 9 PDL; average of three
Protocol: Specifically, the third test was conducted in accordance with the following procedure. The mouse-derived precursor fat cells (manufactured by Research Resources Bank, Resource No. JCRB 9014, Lot No. 01282009) were precultured in a culture medium (DMEM/F12 medium (passage culture, catalog No: “11330-032”, manufactured by Gibco Company, containing 10 mass % FBS, penicillin and streptomycin). Subsequently, from the medium and the cells subjected to the preculture, a cell suspension liquid containing the cells at 3×10^4 cells/mL was prepared. Further, 5 mL of the cell suspension liquid was seeded in each of 60 mm dishes (catalog No: Corning, Cat. No. 430166) (1.5×10^5 cells/dish), and cultured for 2 days under the condition of 37° C. (5 vol % CO2). […] 200 μL of the extraction liquid was transferred to a 96-well plate, and the absorbance at OD 520 nm was measured with an absorption spectrometer (trade name: “Synergy HTX” manufactured by Biotech Japan Corporation). It is evaluated that the higher the value of the absorbance at OD 520 nm, the more likely the fat accumulation is to occur in fat cells. […] The fat accumulation ratio in fat cells containing each sample, the berberine chloride solution or RO water was determined in accordance with the following calculation expression. […]

Structure (SMILES): COc1ccc2cc3[n+](cc2c1OC)CCc1cc2c(cc1-3)OCO2 [Berberine chloride, berberine chloride]
- Fat accumulation ratio, Ave (Blank = 100) [1]: 60%
- Fat accumulation ratio, Ave (Blank = 100) [2]: 37%
